From patent US20240173369A1 (priority 2021, published 2024)
In brackets after ≈: the same amount, converted by molar mass. One block for each molecule: values may come before it.

Tests used:
[1] = test system: Pseudomonas aeruginosa strains 883, 762, PAO1; experiment: Synergism with antibiotic in liquid infection (OD600 growth curves); type: cell-based
Protocol: To test the efficacy of the phage and antibiotics in liquid culture, bacterial host cells were grown overnight in TSB at 37° C. with shaking at 180 rpm to OD600>1.5. In addition, each phage was diluted to a concentration of 5×10^7 PFU/ml in TSB and used individually or combined equally with other phages into a cocktail. Then, 1 mM ions were added, and 200 μL was dispensed per well in a 96-well plate to a final concentration of […]. For no phage control (NPC), TSB containing 1 mM ions was used. Antibiotics was added to the relevant wells (aztreonam 4 μg/mL, colistin 2 μg/mL for “883,” 4 μg/mL for “762” and 6 μg/mL for PAO1). Then, 2 μL of the bacterial culture was added to the wells (dilution of 1:100). TSB containing 1 mM ions was used as NPC. Two repeats were done for each treatment, and TSB media served as a blank. 50 μL of mineral oil added were added to each well to reduce evaporation of the samples, and the plate was covered with a sterile film to allow for bacterial growth and keep the culture sterile. Plates were incubated for approximately 30 hours in a plate reader at 37° C. with shaking, and OD600 was measured every 20 minutes. Two biological repeats were performed for the assay.

[2] = test system: P. aeruginosa embedded in pre-formed biofilm; experiment: Viability of P. aeruginosa embedded in pre-formed biofilm (BacTiter-Glo); type: cell-based, Pseudomonas aeruginosa; settings: 24 h biofilm, 6 hours treatment; RLU converted to cCFU
Protocol: To test the effect of phage on biofilm, starters of the relevant bacteria were grown overnight. Three isolated single colonies of the relevant strains were picked into 3 mL TSB and shook overnight at 37° C., 180 rpm, to an OD600>1, one starter used for each of two biological repeats. The next day, the starters were dispersed in 96 wells plate and the biofilm was left to form for 24 hours: cultures were diluted 1:100 in 3 mL fresh TSB (Tryptic Soy Broth) medium and OD600 was adjusted to ˜0.05 (˜4×10^7 CFU/mL). 200 μL of the diluted inoculums were added per well in a 96 well culture plate (Biofil, cat #TCP-011-096) according to the plate layout. 200 μL TSB was used for blank wells. […] After the incubation period, the supernatant was carefully removed (media, waste, phages/antibiotics, and planktonic cells) the biofilm was washed again with 200 μL PBS (Phosphate-buffered saline, Hylabs, cat #BP655) and its biomass measured (staining with crystal violet (CV) and/or viable cells (plating for CFU enumeration).
For host cells viability assessment, the BacTiter-Glo (Promega, cat #G8231) method was used. The method measures viable bacterial cells based on quantification of the ATP present in the viable cells. The readout is a luminescent signal (in relative light units (RLU)) in an ATP-dependent reaction. […]

P. aeruginosa = experiment: Minimal inhibitory concentration; type: cell-based; settings: Pseudomonas aeruginosa

SMILES: NC[C@H]1O[C@H](O[C@H]2[C@H](O)[C@@H](O[C@H]3O[C@H](CO)[C@@H](O)[C@H](N)[C@H]3O)[C@H](N)C[C@@H]2N)[C@H](N)C[C@@H]1O [Tobramycin, tobramycin]
time growth was suppressed ([1]; PsA strains, single treatment alone): approximately 25 hours

MIC (P. aeruginosa): 4 µg/mL (≈ 13.4 µM)
SMILES: C[C@@H](O)[C@H]1C(=O)N2C(C(=O)O)=C(SCCN=CN)C[C@H]12 [antibiotic, imipenem]
reduction of bacterial burden of embedded PsA [2]: ~1 logs

SMILES: C[C@H]1[C@H](NC(=O)/C(=N\OC(C)(C)C(=O)O)c2csc(N)n2)C(=O)N1S(=O)(=O)O [aztreonam]
effect on bacterial growth / appearance of bacteria mutants ([1]; PsA strains (e.g., PAO1, 883)): slower bacterial growth throughout the observed period
